Test results as given in ChEMBL document CHEMBL3639083, “6,7-unsaturated-7-carbamoyl substituted morphinan derivative” (2013).

Legend:
[1] = molecular target: Delta-type opioid receptor (Rattus norvegicus, UniProt P33533); assay: (§1) Binding Assay: Binding assay of opioid receptor.
Mu-type opioid receptor = Mu-type opioid receptor (Rattus norvegicus, UniProt P33535); assay: as §1
Chain of Mu-type opioid receptor (P33535 whole entry): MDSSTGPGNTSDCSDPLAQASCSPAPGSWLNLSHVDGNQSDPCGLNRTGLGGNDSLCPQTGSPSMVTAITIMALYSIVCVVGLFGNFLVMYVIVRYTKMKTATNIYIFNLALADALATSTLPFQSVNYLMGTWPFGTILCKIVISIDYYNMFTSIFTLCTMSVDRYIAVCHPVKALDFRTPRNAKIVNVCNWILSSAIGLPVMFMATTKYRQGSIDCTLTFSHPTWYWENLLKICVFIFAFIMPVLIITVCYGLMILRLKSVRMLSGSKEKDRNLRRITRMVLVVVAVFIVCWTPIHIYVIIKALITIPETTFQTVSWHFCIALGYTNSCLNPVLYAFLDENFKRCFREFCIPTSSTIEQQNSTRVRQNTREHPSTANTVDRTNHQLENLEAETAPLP

Chain of Delta-type opioid receptor (P33533 whole entry): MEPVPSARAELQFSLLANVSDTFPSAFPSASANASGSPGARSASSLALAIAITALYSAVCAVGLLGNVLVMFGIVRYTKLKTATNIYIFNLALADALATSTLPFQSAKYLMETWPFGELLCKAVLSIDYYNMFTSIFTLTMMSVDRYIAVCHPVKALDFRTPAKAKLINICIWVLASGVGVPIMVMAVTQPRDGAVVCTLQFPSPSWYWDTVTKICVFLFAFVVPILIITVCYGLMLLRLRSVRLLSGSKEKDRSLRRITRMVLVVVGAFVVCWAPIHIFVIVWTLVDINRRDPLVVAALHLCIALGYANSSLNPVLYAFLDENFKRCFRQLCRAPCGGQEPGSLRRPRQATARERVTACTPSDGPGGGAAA

Structure (SMILES): COc1ccc(NC(=O)C2=C(O)[C@@H]3Oc4c(O)ccc5c4[C@@]34CCN(CC3CC3)[C@H](C5)[C@]4(O)C2)cn1
- Ki [1]: 27.6 nM
- Ki (Mu-type opioid receptor): 2.29 nM

Structure (SMILES): CC(C)NC(=O)C1=C(NS(=O)(=O)c2ccc(Cl)cc2)[C@@H]2Oc3c(O)ccc4c3[C@@]23CCN(CC2CC2)[C@H](C4)[C@]3(O)C1
- Ki [1]: 0.56 nM
- Ki (Mu-type opioid receptor): 11 nM
